{
  "source": "patent US20200277246A1",
  "about": "“TREATMENT METHOD, COMPOUNDS, AND METHOD OF INCREASING TRPV2 ACTIVITY” (THE FEINSTEIN INSTITUTE FOR MEDICAL RESEARCH, priority 2015, published 2020)",
  "key": {"[1]": {"tested_on": "FLS from DA rats with PIA", "assay": "Matrigel transwell invasion assay, FLS from DA rats with PIA (incl. siRNA knock-down)", "type": "cell-based, rat", "details": "for Reduction of FLS invasion: DA cells, overnight", "procedure": "The in vitro invasiveness of FLS was assayed in a transwell system using Matrigel-coated inserts (BD Biosciences, Franklin Lakes, N.J.), as previously described (Tolboom et al., “Invasiveness of Fibroblast-Like Synoviocytes is an Individual Patient Characteristic Associated with the Rate of Joint Destruction in Patients with Rheumatoid Arthritis,” Arthritis Rheum. 52 (7):1999-2002 (2005); Laragione et al., “The Arthritis Severity Locus Cia5d is a Novel Genetic Regulator of the Invasive Properties of Synovial Fibroblasts,” Arthritis Rheum. 58 (8):2296-2306 (2008), which are hereby incorporated by reference in their entirety). Briefly, 70-80% confluent cells were harvested by trypsin-EDTA digestion, and re-suspended at 2.0×10^4 cells in 500 μl of serum-free DMEM. Cells were placed in the upper compartment of the Matrigel-coated inserts. Where indicated, O1821, LER13, or vehicle was added to the upper chamber. The lower compartment was filled with complete media and the plates were incubated at 37° C. for 24 hours. After 24 hours the upper surface of the insert was wiped with cotton-swabs to remove non-invading cells and the Matrigel layer. The opposite side of the insert was stained with Crystal Violet (Sigma) and the total number of cells that invaded through Matrigel counted at 100× magnification. Experiments were done in duplicate.\nDharmacon SMARTpool siRNA targeting Trpv2, Gapdh, or a non-coding control were purchased from Thermo Scientific (Lafayette, Colo.) and transfected into DA FLS according to the manufacturer's instructions. Cells were then incubated at 37° C. for 72 hours prior to initiating the invasion assays. Knock-down was confirmed with qPCR and Western blot."}, "[2]": {"tested_on": "FLS from a C57BL/6 mouse with KRN serum-induced arthritis", "assay": "Matrigel transwell invasion assay, mouse FLS", "type": "cell-based", "details": "10 μM, one cell line in triplicate", "procedure": "The in vitro invasiveness of FLS was assayed in a transwell system using Matrigel-coated inserts (BD Biosciences, Franklin Lakes, N.J.), as previously described (Tolboom et al., “Invasiveness of Fibroblast-Like Synoviocytes is an Individual Patient Characteristic Associated with the Rate of Joint Destruction in Patients with Rheumatoid Arthritis,” Arthritis Rheum. 52 (7):1999-2002 (2005); Laragione et al., “The Arthritis Severity Locus Cia5d is a Novel Genetic Regulator of the Invasive Properties of Synovial Fibroblasts,” Arthritis Rheum. 58 (8):2296-2306 (2008), which are hereby incorporated by reference in their entirety). Briefly, 70-80% confluent cells were harvested by trypsin-EDTA digestion, and re-suspended at 2.0×10^4 cells in 500 μl of serum-free DMEM. Cells were placed in the upper compartment of the Matrigel-coated inserts. Where indicated, O1821, LER13, or vehicle was added to the upper chamber. The lower compartment was filled with complete media and the plates were incubated at 37° C. for 24 hours. After 24 hours the upper surface of the insert was wiped with cotton-swabs to remove non-invading cells and the Matrigel layer. The opposite side of the insert was stained with Crystal Violet (Sigma) and the total number of cells that invaded through Matrigel counted at 100× magnification. […]"}, "cannabinoid receptors": {"tested_on": "cannabinoid receptors", "details": "cited from earlier work"}, "Trpv2": {"biological_target": "T1, Trpv2 (Rattus norvegicus, UniProt Q9WUD2)", "T1 sequence (Q9WUD2 1-761)": "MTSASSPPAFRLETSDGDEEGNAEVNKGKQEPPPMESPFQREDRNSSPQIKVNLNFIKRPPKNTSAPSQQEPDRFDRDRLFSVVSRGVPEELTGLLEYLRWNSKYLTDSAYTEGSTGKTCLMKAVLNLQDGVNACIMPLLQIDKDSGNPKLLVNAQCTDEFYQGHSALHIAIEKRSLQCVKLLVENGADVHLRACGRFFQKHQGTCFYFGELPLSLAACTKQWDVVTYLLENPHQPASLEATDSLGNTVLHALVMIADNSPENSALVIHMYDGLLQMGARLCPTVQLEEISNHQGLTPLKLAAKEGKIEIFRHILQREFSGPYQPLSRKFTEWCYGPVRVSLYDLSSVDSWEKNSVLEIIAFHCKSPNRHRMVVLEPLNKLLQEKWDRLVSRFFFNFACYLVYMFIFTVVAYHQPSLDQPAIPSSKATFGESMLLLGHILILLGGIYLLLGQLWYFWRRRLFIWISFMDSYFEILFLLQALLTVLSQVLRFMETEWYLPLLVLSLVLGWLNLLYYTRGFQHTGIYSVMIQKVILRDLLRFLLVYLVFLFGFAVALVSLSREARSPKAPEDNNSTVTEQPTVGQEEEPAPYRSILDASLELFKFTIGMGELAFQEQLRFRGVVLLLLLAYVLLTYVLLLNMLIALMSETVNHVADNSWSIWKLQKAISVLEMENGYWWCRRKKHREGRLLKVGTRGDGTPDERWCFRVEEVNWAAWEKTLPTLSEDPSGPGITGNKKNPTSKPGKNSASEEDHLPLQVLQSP", "assay": "Intracellular calcium influx (Fluo-4 NW) in DA FLS", "type": "cell-based", "parameters": "endogenous in cells; host or cells: fibroblast-like synoviocytes (FLS) from DA rats", "details": "for Intracellular calcium influx vs untreated and vehicle: increasing concentrations, two DA FLS cell lines", "procedure": "Intracellular calcium influx was measured using the Fluo-4 NW calcium assay kit (Molecular Probes/Invitrogen) according to the manufacturer's instructions, as previously described (Laragione et al., “CXCL10 and its Receptor CXCR3 Regulate Synovial Fibroblast Invasion in Rheumatoid Arthritis,” Arthritis Rheum. 63 (11):3274-3283 (2011), which is hereby incorporated by reference in its entirety). Briefly, DA FLS were plated at a density of 4,500 cells/well in a 96-well plate (100 μl volume of complete media per well). After cell adhesion the media was changed to serum-free media for overnight culture. Serum-free media was then replaced with 50 μl of dye loading solution, followed by incubation at 37° C. for 30 minutes and a baseline fluorimetric reading. Then, O1821, LER13, or vehicle were added to their respective wells at different concentrations and fluorescence read immediately in a Fluoroskan Ascent Microplate Fluorometer (Thermo Scientific) with settings appropriate for excitation at 494 nm and emission at 516 nm."}},
  "note": "Values joined by “and” are separate entries in the source; they are usually repeats but may differ in a detail not shown here. Equal entries are not always repeated. “Also recorded” adds a separate entry of the source.",
  "data": [
    {"molecule": "C=C(C)[C@@H]1CCC(C)=C[C@H]1c1c(O)cc(C)cc1O", "note": "[Compound O1821]", "values": [
      {"measurement": "Reduction of FLS invasion", "setting": "[1]; 1 μM", "value": 80, "unit": "%"},
      {"measurement": "Reduction of FLS invasion", "setting": "[1]; 10 μM", "value": 99.4, "unit": "%"},
      {"measurement": "Reduction in invasion vs control vehicle", "setting": "[2]", "value": 65, "unit": "%"},
      {"measurement": "Stimulation of cannabinoid receptors", "setting": "cannabinoid receptors", "value": "does not stimulate"},
      {"measurement": "Intracellular calcium influx vs untreated and vehicle", "setting": "Trpv2", "value": "significant dose-dependent increase; also recorded: significantly increased intracellular calcium influx"}
    ]},
    {"molecule": "C#Cc1cc(O)c(C2C=C(C)CCC2C(=C)C)c(O)c1C1C=C(C)CCC1C(=C)C", "note": "[Compound 13, (1R,2″R,2R,2″S)-6′-ethynyl-5,5″-dimethyl-2,2″-di(prop-1-en-2-yl)-1,1″,2,2″,3,3″,4,4″-octahydro-[1,1′:3′,1″-terphenyl]-2′,4′-diol]", "values": [
      {"measurement": "Suppression of FLS invasion", "setting": "[1]; 10 μM, non-transfected, siRNA control and siRNA GAPDH DA FLS, listed as LER13", "value": "65% and 60%"},
      {"measurement": "Suppression of FLS invasion after Trpv2 siRNA knock-down", "setting": "[1]; siRNA Trpv2 transfected FLS, listed as LER13", "value": "non-responsive; also recorded: not responsive or suppressed"},
      {"measurement": "Reduction in invasion vs control vehicle", "setting": "[2]; listed as LER13", "value": "65% and 75%"},
      {"measurement": "Calcium influx higher compared with O1821", "setting": "Trpv2; DA FLS", "value": "~30", "unit": "%"},
      {"measurement": "Intracellular calcium influx vs untreated and vehicle", "setting": "Trpv2", "value": "significantly increased intracellular calcium influx"},
      {"measurement": "Calcium influx", "setting": "Trpv2; measured over 200 seconds, compared with O1821", "value": "increased (30% greater than O1821)"}
    ]}
  ]
}
